Source: publication PMC5390772 (Neuropharmacology, 2017)

What was measured:
α7 nACh receptor N104C = molecular target: α7 nACh receptor N104C; design: species or system chick; conditions: no saturable binding
Experimental: (§1) Mutagenesis was performed using the QuikChange method (Agilent Technologies Inc., CA, USA) to substitute amino acids throughout each of the binding loops A – F (Fig. 1). The α7 nACh-5-HT3 subunit cDNA was as described by Bertrand ([Eiselé et al., 1993]) and was cloned into pcDNA3.1 for expression in HEK293 cells. Human 5-HT3A cDNA (accession number: P46098) and mouse 5-HT3A cDNA (Q6J1J7) were cloned into the same vector. Cells were transiently transfected with this cDNA using either polyethyleneimine (PEI: 25 kDa, linear, powder, Polysciences Inc., Eppelheim, Germany) or Lipofectamine 2000 (Life Technologies, CA, USA) according to the manufacturer's instructions. 30 μl of PEI (1 mg ml^−1), 5 μg cDNA and 1 ml DMEM/F12 were incubated for 10 min at room temperature, added drop wise to a 90 mm plate of 70–80% confluent HEK293 cells, and incubated for 2–3 days before use.
(§2) Human embryonic kidney (HEK) 293 cells were grown on 90 mm round tissue culture plates as monolayers in DMEM/F12 (Life Technologies) supplemented with 10% fetal bovine serum (FBS; Sigma Aldrich) at 37 °C in a moist atmosphere containing 5% CO2.
(§3) Transfected HEK 293 cells were scraped into 0.6 ml of ice-cold 10 mM HEPES buffer (pH 7.4) and stored frozen. After thawing, they were washed with HEPES buffer, homogenised by passage through a 21 G needle, and 50 μg of cell suspension incubated in 0.5 ml HEPES buffer containing [^3H]epibatidine (55.8 Ci/mmol, Waltham, MA). Non-specific binding was determined using 300 μM (−)-nicotine. Equilibrium reactions were incubated on ice for at least 1 h. Incubations were terminated by vacuum filtration onto Whatman GF/B filters wetted with 0.3% polyethyleneimine, followed by two rapid washes with 2.5 ml ice cold buffer. Radioactivity was determined by scintillation in Ultima Gold XR (Perkin Elmer) using a Tri-Carb 2100 TR (PerkinElmer) scintillation counter. Final counts were monitored to ensure that binding never exceeded 10% of the added concentrations of radioligands.
(§4) All data were analysed using GraphPad Prism v5. Individual saturation binding experiments were fitted to Eq. (1):(1) […] where Bmax is maximum binding at equilibrium, Kd is the equilibrium dissociation constant and [L] is the free concentration of radioligand. Values from individual experiments were averaged to yield the mean ± sem. Affinities were compared using 1-way ANOVA and a Dunnett's Post-Test.

α7 nACh receptor W145C = molecular target: α7 nACh receptor W145C; design: species or system chick; conditions: no saturable binding
Experimental: as §1, §2, §3, §4

α7 nACh receptor W53C = molecular target: α7 nACh receptor W53C; design: species or system chick; conditions: no saturable binding
Experimental: as §1, §2, §3, §4

α7 nACh receptor Y184C = molecular target: α7 nACh receptor Y184C; design: species or system chick; conditions: no saturable binding
Experimental: as §1, §2, §3, §4

α7 nACh receptor Y191C = molecular target: α7 nACh receptor Y191C; design: species or system chick; conditions: no saturable binding
Experimental: as §1, §2, §3, §4

α7 nACh receptor Y91C = molecular target: α7 nACh receptor Y91C; design: species or system chick; conditions: no saturable binding
Experimental: as §1, §2, §3, §4

[1] = molecular target: T1, wild type α7 nACh receptors (UniProt P22770+P23979); type: binding, chick
T1 construct: directed against the 5-HT3 region of the chimaeric receptor; expressed in transfected cells; host or cells: HEK293
T1 sequence (P22770+P23979 fused P22770:T225I/P22770:M226I): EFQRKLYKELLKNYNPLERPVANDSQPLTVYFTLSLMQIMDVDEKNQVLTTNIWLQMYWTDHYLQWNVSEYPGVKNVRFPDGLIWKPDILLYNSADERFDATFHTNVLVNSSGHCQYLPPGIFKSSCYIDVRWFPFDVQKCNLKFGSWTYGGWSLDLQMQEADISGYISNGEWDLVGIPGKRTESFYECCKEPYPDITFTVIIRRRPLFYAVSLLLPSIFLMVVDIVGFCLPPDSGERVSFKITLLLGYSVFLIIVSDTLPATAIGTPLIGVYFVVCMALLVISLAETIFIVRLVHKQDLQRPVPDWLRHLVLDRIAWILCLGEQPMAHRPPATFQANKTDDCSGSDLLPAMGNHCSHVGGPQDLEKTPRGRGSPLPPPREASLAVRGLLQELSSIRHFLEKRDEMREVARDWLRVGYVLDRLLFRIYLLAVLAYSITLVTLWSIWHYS
Experimental: as §1, §2, §3, §4

[2] = molecular target: T2, wild type α7 nACh receptors (UniProt P22770+P23979, M226I/T225I); type: binding, chick; conditions: α7 nACh-5-HT3 chimaera in HEK 293 cells
T2 construct: directed against the 5-HT3 region of the chimaeric receptor; expressed in transfected cells; host or cells: HEK293
T2 sequence (P22770+P23979 fused P22770:T225I/P22770:M226I): as above
Experimental: as §1, §2, §3, §4

α7 nACh receptor C186A = type: binding, chick
Experimental: as §1, §2, §3, §4

α7 nACh receptor C187A = type: binding, chick
Experimental: as §1, §2, §3, §4

α7 nACh receptor D160C = type: binding, chick
Experimental: as §1, §2, §3, §4

α7 nACh receptor L106C = type: binding, chick
Experimental: as §1, §2, §3, §4

α7 nACh receptor L116C = type: binding, chick
Experimental: as §1, §2, §3, §4

α7 nACh receptor Q114C = type: binding, chick
Experimental: as §1, §2, §3, §4

α7 nACh receptor Q55C = type: binding, chick
Experimental: as §1, §2, §3, §4

α7 nACh receptor S144C = type: binding, chick
Experimental: as §1, §2, §3, §4

α7 nACh receptor S162C = type: binding, chick
Experimental: as §1, §2, §3, §4

α7 nACh receptor T146C = type: binding, chick
Experimental: as §1, §2, §3, §4

human 5-HT3 receptors [3] = molecular target: T3, human 5-HT3 receptors (Homo sapiens, UniProt P46098); type: binding; conditions: concentration of up to 25 nM
T3 construct: expressed in transfected cells; host or cells: HEK293
T3 sequence (P46098 24-478): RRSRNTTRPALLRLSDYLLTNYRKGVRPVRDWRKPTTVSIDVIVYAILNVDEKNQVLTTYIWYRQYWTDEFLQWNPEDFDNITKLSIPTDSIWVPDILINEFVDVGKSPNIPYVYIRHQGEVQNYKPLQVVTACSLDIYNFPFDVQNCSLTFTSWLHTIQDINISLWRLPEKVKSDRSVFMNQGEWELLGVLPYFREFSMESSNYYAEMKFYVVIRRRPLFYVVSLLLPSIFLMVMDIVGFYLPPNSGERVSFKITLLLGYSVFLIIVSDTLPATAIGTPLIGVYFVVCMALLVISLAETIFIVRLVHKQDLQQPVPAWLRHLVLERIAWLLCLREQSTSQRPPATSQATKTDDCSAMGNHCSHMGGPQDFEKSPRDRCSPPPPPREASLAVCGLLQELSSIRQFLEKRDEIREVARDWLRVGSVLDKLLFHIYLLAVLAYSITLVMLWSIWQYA
Experimental: as §1
(§5) Transfected HEK 293 cells were scraped into 0.6 ml of ice-cold 10 mM HEPES buffer (pH 7.4) and stored frozen. […] Non-specific binding was determined using 300 μM (−)-nicotine. […] Radioactivity was determined by scintillation in Ultima Gold XR (Perkin Elmer) using a Tri-Carb 2100 TR (PerkinElmer) scintillation counter. Final counts were monitored to ensure that binding never exceeded 10% of the added concentrations of radioligands. […]

mouse 5-HT3 receptors [4] = molecular target: mouse 5-HT3 receptors (Mus musculus, UniProt P23979); type: binding; conditions: concentration of up to 25 nM
Experimental: as §1, §5
Target sequence in this assay (P23979 24-246 limits assumed): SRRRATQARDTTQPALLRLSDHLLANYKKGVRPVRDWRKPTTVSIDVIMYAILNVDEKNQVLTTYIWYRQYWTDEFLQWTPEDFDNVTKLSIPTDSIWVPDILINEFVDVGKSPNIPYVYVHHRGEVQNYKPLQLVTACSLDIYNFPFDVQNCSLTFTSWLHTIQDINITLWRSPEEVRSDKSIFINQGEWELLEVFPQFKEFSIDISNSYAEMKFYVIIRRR

human 5-HT3 receptors [5] = molecular target: T3, human 5-HT3 receptors; assay: biochemical; type: binding
Experimental: as §1, §5

mouse 5-HT3 receptors [6] = molecular target: T4, mouse 5-HT3 receptors (Mus musculus, UniProt P23979); assay: biochemical; type: binding
T4 construct: expressed in transfected cells; host or cells: HEK293
Experimental: as §1, §5
T4 sequence (P23979 24-483 isoform P23979-2 limits assumed): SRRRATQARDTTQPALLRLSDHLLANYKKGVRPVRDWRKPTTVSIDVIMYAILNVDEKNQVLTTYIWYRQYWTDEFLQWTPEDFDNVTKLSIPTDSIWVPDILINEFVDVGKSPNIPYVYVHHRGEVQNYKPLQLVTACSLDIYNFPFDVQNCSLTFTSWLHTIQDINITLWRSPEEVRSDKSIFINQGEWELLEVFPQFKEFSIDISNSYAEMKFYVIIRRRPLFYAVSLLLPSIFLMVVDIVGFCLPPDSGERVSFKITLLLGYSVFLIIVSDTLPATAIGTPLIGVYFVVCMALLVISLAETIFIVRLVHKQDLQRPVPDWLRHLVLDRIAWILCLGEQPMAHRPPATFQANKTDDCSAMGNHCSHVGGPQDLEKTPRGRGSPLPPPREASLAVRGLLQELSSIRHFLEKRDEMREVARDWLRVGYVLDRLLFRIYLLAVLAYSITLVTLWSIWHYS

α7 nACh receptors W145F = tested on: α7 nACh receptors W145F; design: method as in Li et al., 2011; conditions: W145F ref Li et al., 2011; cited from earlier work
α7 nACh receptors Y184F = tested on: α7 nACh receptors Y184F; design: method as in Li et al., 2011; conditions: Y184F ref Li et al., 2011; cited from earlier work
α7 nACh receptors W53F = tested on: α7 nACh receptors W53F; design: method as in Li et al., 2011; Van Arnam et al., 2013; conditions: W53F ref Li et al., 2011; Van Arnam et al., 2013; cited from earlier work
α7 nACh receptors = molecular target: α7 nACh receptors; design: method as in Li et al., 2011; Van Arnam et al., 2013; conditions: before W53 substitution ref Li et al., 2011; Van Arnam et al., 2013; cited from earlier work
α7 nACh receptors W53A = molecular target: α7 nACh receptors W53A; design: method as in Li et al., 2011; Van Arnam et al., 2013; conditions: W53 substituted by Ala ref Li et al., 2011; Van Arnam et al., 2013; cited from earlier work
α7 nACh receptors L116A = tested on: α7 nACh receptors L116A; design: method as in Blum et al., 2013; Van Arnam et al., 2013; conditions: L116 Ala mutation ref Blum et al., 2013, Van Arnam et al.; cited from earlier work

Clc1ccc(C2CC3CCC2N3)cn1 (stereo not drawn) [[^3H]epibatidine]
Kd (α7 nACh receptor N104C): > 20 nM
Kd (α7 nACh receptor W145C): > 20 nM
Kd (α7 nACh receptor W53C): > 20 nM
Kd (α7 nACh receptor Y184C): > 20 nM
Kd (α7 nACh receptor Y191C): > 20 nM
Kd (α7 nACh receptor Y91C): > 20 nM
Kd [1]: 8 nM
pKd Mean ± SEM [2]: 8.09 ± 0.06
Kd (α7 nACh receptor C186A): 33 nM
pKd Mean ± SEM (α7 nACh receptor C186A; loop C, HEK 293 cells): 7.48 ± 0.10
Kd (α7 nACh receptor C187A): 60 nM
pKd Mean ± SEM (α7 nACh receptor C187A; loop C, HEK 293 cells): 7.22 ± 0.07
Kd (α7 nACh receptor D160C): 8.7 nM
pKd Mean ± SEM (α7 nACh receptor D160C; loop F, HEK 293 cells): 8.06 ± 0.10
Kd (α7 nACh receptor L106C): 8.3 nM
pKd Mean ± SEM (α7 nACh receptor L106C; loop E, HEK 293 cells): 8.08 ± 0.12
Kd (α7 nACh receptor L116C): 5.1 nM
pKd Mean ± SEM (α7 nACh receptor L116C; loop E, HEK 293 cells): 8.29 ± 0.05
Kd (α7 nACh receptor Q114C): 1.5 nM
pKd Mean ± SEM (α7 nACh receptor Q114C; loop E, HEK 293 cells): 8.82 ± 0.09
Kd (α7 nACh receptor Q55C): 6.9 nM
pKd Mean ± SEM (α7 nACh receptor Q55C; loop D, HEK 293 cells): 8.16 ± 0.09
Kd (α7 nACh receptor S144C): 2.3 nM
pKd Mean ± SEM (α7 nACh receptor S144C; loop B, HEK 293 cells): 8.64 ± 0.12
Kd (α7 nACh receptor S162C): 7.2 nM
pKd Mean ± SEM (α7 nACh receptor S162C; loop F, HEK 293 cells): 8.14 ± 0.09
Kd (α7 nACh receptor T146C): 9.8 nM
pKd Mean ± SEM (α7 nACh receptor T146C; loop B, HEK 293 cells): 8.01 ± 0.07
saturable binding (human 5-HT3 receptors [3]): not detected
saturable binding (mouse 5-HT3 receptors [4]): not detected

Clc1ccc(C2CC3CCC2N3)cn1 (stereo not drawn) [epibatidine]
increase in affinity relative to wild type (α7 nACh receptor Q114C): 5 fold
Ki (human 5-HT3 receptors [5]): 2510 nM
Ki (mouse 5-HT3 receptors [6]): 12300 nM
reduction of affinity by mutation (α7 nACh receptors W145F): > 2200 fold
change of affinity by mutation (α7 nACh receptors Y184F): > 250 fold
affinity change by mutation (α7 nACh receptors W53F): 4 fold
EC50 (α7 nACh receptors): 340 nM
EC50 (α7 nACh receptors W53A): 5800 nM
change in the EC50 by mutation (α7 nACh receptors L116A): 9 fold
